Measured values as given in the supplement of paper PMC11208160.

Assay: recombinant barcode read abundance after kanamycin selection (control-corrected) (log10(CPM+1)); higher = more efficient recombination; sequences stand for … in AGTGCAGAGAAAATCGGCCAGTTTTCTCTGCCTGCAGTCCGCATGCCGT…ATTTATGCAGCGGACTGCCTTTCTCCCAAAGTGATAAACCGGACAGTATCATGGACCGGTTTTCCCGGTAATCCGTATTTGCAAGGTTGGTTTCACT; site = the 11-nt target
Outline: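 Oligos holding a promoter, target, barcode and the J23119-driven first 104 bases of the bridge RNA were Gibson-cloned into a vector that supplied the other 73 bp plus a T7-inducible recombinase. This library was co-electroporated with a donor plasmid into E. coli. Two replicates went on chloramphenicol/ampicillin LB agar (control) and two on chloramphenicol/ampicillin/kanamycin with 0.1 mM IPTG. Recombination efficiency is read from averaged, control-corrected barcode counts per million at recombinant junctions, reported as log10(CPM+1).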

Row | Sequence | recombinant barcode read abundance (log10)
1 | GAGGCCTCTTGGGTTCTAACCTGTTGCCATC [GAGGCCTCTTG_LTGcore_CT_RTGcore_GA] (site GAGGCCTCTTG) (LTG core: CT, RTG core: GA) | 0.252
2 | GAGGCCTGTTGGGTTCTAACCTGTTGCCAAC [GAGGCCTCTTG_LTGcore_GT_RTGcore_GT] (site GAGGCCTCTTG) (LTG core: GT, RTG core: GT) | 0.104
3 | GAGGCCTTCTGGGTTCTAACCTGTTGCCAAG [GAGGCCTCTTG_LTGcore_TC_RTGcore_CT] (site GAGGCCTCTTG) (LTG core: TC, RTG core: CT) | 0.0445
4 | GAGGCCTTCTGGGTTCTAACCTGTTGCCAGA [GAGGCCTCTTG_LTGcore_TC_RTGcore_TC] (site GAGGCCTCTTG) (LTG core: TC, RTG core: TC) | 0.104
5 | GAGGCCTTGTGGGTTCTAACCTGTTGCCACA [GAGGCCTCTTG_LTGcore_TG_RTGcore_TG] (site GAGGCCTCTTG) (LTG core: TG, RTG core: TG) | 0.014
6 | GAGGCCTTTTGGGTTCTAACCTGTTGCCAAA [GAGGCCTCTTG_LTGcore_TT_RTGcore_TT] (site GAGGCCTCTTG) (LTG core: TT, RTG core: TT) | 0.0543
7 | GAGTCCAATTGGGTTCTAACCTGTTGCGTAT [GAGTCCACTAC_LTGcore_AT_RTGcore_AT] (site GAGTCCACTAC) (LTG core: AT, RTG core: AT) | 0.0548
8 | GAGTCCACATGGGTTCTAACCTGTTGCGTTG [GAGTCCACTAC_LTGcore_CA_RTGcore_CA] (site GAGTCCACTAC) (LTG core: CA, RTG core: CA) | 0.022
9 | GAGTCCACTTGGGTTCTAACCTGTTGCGTAA [GAGTCCACTAC_LTGcore_CT_RTGcore_TT] (site GAGTCCACTAC) (LTG core: CT, RTG core: TT) | 0.027
10 | GAGTCCAGGTGGGTTCTAACCTGTTGCGTAG [GAGTCCACTAC_LTGcore_GG_RTGcore_CT] (site GAGTCCACTAC) (LTG core: GG, RTG core: CT) | 0.689
11 | GAGTCCATGTGGGTTCTAACCTGTTGCGTCA [GAGTCCACTAC_LTGcore_TG_RTGcore_TG] (site GAGTCCACTAC) (LTG core: TG, RTG core: TG) | 0.101
12 | GAGTCCTCATGGGTTCTAACCTGTTGCCTTG [GAGTCCTCTAG_LTGcore_CA_RTGcore_CA] (site GAGTCCTCTAG) (LTG core: CA, RTG core: CA) | 0.185
13 | GAGTCCTCCTGGGTTCTAACCTGTTGCCTAG [GAGTCCTCTAG_LTGcore_CC_RTGcore_CT] (site GAGTCCTCTAG) (LTG core: CC, RTG core: CT) | 0.191
14 | GAGTCCTCGTGGGTTCTAACCTGTTGCCTCG [GAGTCCTCTAG_LTGcore_CG_RTGcore_CG] (site GAGTCCTCTAG) (LTG core: CG, RTG core: CG) | 0.0506
15 | GAGTCCTCTTGGGTTCTAACCTGTTGCCTAG [GAGTCCTCTAG_LTGcore_CT_RTGcore_CT] (site GAGTCCTCTAG) (LTG core: CT, RTG core: CT) | 2.17
16 | GAGTCCTCTTGGGTTCTAACCTGTTGCCTGA [GAGTCCTCTAG_LTGcore_CT_RTGcore_TC] (site GAGTCCTCTAG) (LTG core: CT, RTG core: TC) | 1.3
17 | GAGTCCTCTTGGGTTCTAACCTGTTGCCTTA [GAGTCCTCTAG_LTGcore_CT_RTGcore_TA] (site GAGTCCTCTAG) (LTG core: CT, RTG core: TA) | 1.48
18 | GAGTCCTCTTGGGTTCTAACCTGTTGCCTTC [GAGTCCTCTAG_LTGcore_CT_RTGcore_GA] (site GAGTCCTCTAG) (LTG core: CT, RTG core: GA) | 1.24
19 | GAGTCCTGCTGGGTTCTAACCTGTTGCCTGC [GAGTCCTCTAG_LTGcore_GC_RTGcore_GC] (site GAGTCCTCTAG) (LTG core: GC, RTG core: GC) | 0.333
20 | GAGTCCTGTTGGGTTCTAACCTGTTGCCTAC [GAGTCCTCTAG_LTGcore_GT_RTGcore_GT] (site GAGTCCTCTAG) (LTG core: GT, RTG core: GT) | 0.0554
21 | GAGTCCTTATGGGTTCTAACCTGTTGCCTAG [GAGTCCTCTAG_LTGcore_TA_RTGcore_CT] (site GAGTCCTCTAG) (LTG core: TA, RTG core: CT) | 0.414
22 | GCGCGACACTGGGTTCTAACCTGTTGCTTGT [GCGCGACCTAA_LTGcore_AC_RTGcore_AC] (site GCGCGACCTAA) (LTG core: AC, RTG core: AC) | 0.147
23 | GCGCGACCATGGGTTCTAACCTGTTGCTTAG [GCGCGACCTAA_LTGcore_CA_RTGcore_CT] (site GCGCGACCTAA) (LTG core: CA, RTG core: CT) | 0.422

Row | Sequence | recombinant barcode read abundance (log10)
24 | GCGCGACCCTGGGTTCTAACCTGTTGCTTAG [GCGCGACCTAA_LTGcore_CC_RTGcore_CT] (site GCGCGACCTAA) (LTG core: CC, RTG core: CT) | 0.907
25 | GCGCGACCTTGGGTTCTAACCTGTTGCTTGC [GCGCGACCTAA_LTGcore_CT_RTGcore_GC] (site GCGCGACCTAA) (LTG core: CT, RTG core: GC) | 0.0896
26 | GCGCGACCTTGGGTTCTAACCTGTTGCTTGT [GCGCGACCTAA_LTGcore_CT_RTGcore_AC] (site GCGCGACCTAA) (LTG core: CT, RTG core: AC) | 0.0798
27 | GCGCGACCTTGGGTTCTAACCTGTTGCTTTC [GCGCGACCTAA_LTGcore_CT_RTGcore_GA] (site GCGCGACCTAA) (LTG core: CT, RTG core: GA) | 0.07
28 | GCGCGACGATGGGTTCTAACCTGTTGCTTAG [GCGCGACCTAA_LTGcore_GA_RTGcore_CT] (site GCGCGACCTAA) (LTG core: GA, RTG core: CT) | 0.0201
29 | GCGCGACGCTGGGTTCTAACCTGTTGCTTAG [GCGCGACCTAA_LTGcore_GC_RTGcore_CT] (site GCGCGACCTAA) (LTG core: GC, RTG core: CT) | 0.0605
30 | GCGCGACGGTGGGTTCTAACCTGTTGCTTAG [GCGCGACCTAA_LTGcore_GG_RTGcore_CT] (site GCGCGACCTAA) (LTG core: GG, RTG core: CT) | 0.048
31 | GCGGGACAATGGGTTCTAACCTGTTGCCTTT [GCGGGACCTAG_LTGcore_AA_RTGcore_AA] (site GCGGGACCTAG) (LTG core: AA, RTG core: AA) | 0.119
32 | GCGGGACAGTGGGTTCTAACCTGTTGCCTAG [GCGGGACCTAG_LTGcore_AG_RTGcore_CT] (site GCGGGACCTAG) (LTG core: AG, RTG core: CT) | 0.28
33 | GCGGGACCATGGGTTCTAACCTGTTGCCTAG [GCGGGACCTAG_LTGcore_CA_RTGcore_CT] (site GCGGGACCTAG) (LTG core: CA, RTG core: CT) | 0.909
34 | GCGGGACCTTGGGTTCTAACCTGTTGCCTCC [GCGGGACCTAG_LTGcore_CT_RTGcore_GG] (site GCGGGACCTAG) (LTG core: CT, RTG core: GG) | 1.24
35 | GCGGGACCTTGGGTTCTAACCTGTTGCCTCT [GCGGGACCTAG_LTGcore_CT_RTGcore_AG] (site GCGGGACCTAG) (LTG core: CT, RTG core: AG) | 0.713
36 | GCGGGACCTTGGGTTCTAACCTGTTGCCTGT [GCGGGACCTAG_LTGcore_CT_RTGcore_AC] (site GCGGGACCTAG) (LTG core: CT, RTG core: AC) | 1.21
37 | GCGGGACCTTGGGTTCTAACCTGTTGCCTTT [GCGGGACCTAG_LTGcore_CT_RTGcore_AA] (site GCGGGACCTAG) (LTG core: CT, RTG core: AA) | 0.927
38 | GCGGGACGCTGGGTTCTAACCTGTTGCCTAG [GCGGGACCTAG_LTGcore_GC_RTGcore_CT] (site GCGGGACCTAG) (LTG core: GC, RTG core: CT) | 0.137
39 | GCGGGACTATGGGTTCTAACCTGTTGCCTAG [GCGGGACCTAG_LTGcore_TA_RTGcore_CT] (site GCGGGACCTAG) (LTG core: TA, RTG core: CT) | 0.11
40 | GCGGGACTCTGGGTTCTAACCTGTTGCCTAG [GCGGGACCTAG_LTGcore_TC_RTGcore_CT] (site GCGGGACCTAG) (LTG core: TC, RTG core: CT) | 0.467
41 | GCGGGACTCTGGGTTCTAACCTGTTGCCTGA [GCGGGACCTAG_LTGcore_TC_RTGcore_TC] (site GCGGGACCTAG) (LTG core: TC, RTG core: TC) | 0.135
42 | GCGGGACTGTGGGTTCTAACCTGTTGCCTCA [GCGGGACCTAG_LTGcore_TG_RTGcore_TG] (site GCGGGACCTAG) (LTG core: TG, RTG core: TG) | 0.226
43 | GGACACCAATGGGTTCTAACCTGTTGCCTTT [GGACACCCTAG_LTGcore_AA_RTGcore_AA] (site GGACACCCTAG) (LTG core: AA, RTG core: AA) | 0.364
44 | GGACACCCTTGGGTTCTAACCTGTTGCCTGC [GGACACCCTAG_LTGcore_CT_RTGcore_GC] (site GGACACCCTAG) (LTG core: CT, RTG core: GC) | 1.55
45 | GGACACCGCTGGGTTCTAACCTGTTGCCTAG [GGACACCCTAG_LTGcore_GC_RTGcore_CT] (site GGACACCCTAG) (LTG core: GC, RTG core: CT) | 0.105
